Experimental data published in article PMC11476552, “Synthesis and Preliminary Studies for In Vitro Biological Activity of Two New Water-Soluble Bis(thio)carbohydrazones and Their Copper(II) and Zinc(II) Complexes” (International Journal of Molecular Sciences, 2024).
Read-outs that look alike come from different tables or passages of the source.

Tests used:
Hs27 cells = assay: Antiproliferative activity, trypan blue cell count, Hs27; assay type: cell-based; details: Hs27, up to 100 µg/mL, 24-72 h
Method: We have started to investigate the antiproliferative profile of the ligands and of the complexes C1–C4 using a normal fibroblast cell line (Hs27) and a leukaemia cell line (U937), an in vitro cell model system systematically used to validate the toxicological profile of new potential anticancer agents. For the cytotoxicity assay, we treated Hs27 and U937 cells with five different concentrations of compound, ranging from 12.5 to 100 µg/mL, for 24, 48, and 72 h.
U937 cells (ATCC, CRL-1593.2) were obtained from the American Tissue Culture Collection (Rockville, MD, USA) and were cultured in Roswell Park Memorial Institute Medium (RPMI-1640) (Euroclone, Italy); Hs27 cells (ATCC, CRL1634) were grown in DMEM. Both media were supplemented with 10% (v/v) foetal bovine serum (Euroclone, Italy), 1% L-glutamine (2 mM) (Euroclone, Italy), and 1% penicillin (100 U/mL)/streptomycin (100 µg/mL) (Euroclone, Italy), added with 10% (v/v) foetal bovine serum (Euroclone, Italy), 1% L-glutamine (2 mM) (Euroclone, Italy), and 1% penicillin (100 U/mL)/streptomycin (100 µg/mL) (Euroclone, Italy). Flasks were maintained at 37 °C and 5% CO2 in a humidified atmosphere. […]
The antiproliferative activity of the ligands and the complexes C1–C4 was evaluated in vitro on U937 and Hs27 cell lines. […] Values are reported as the mean of the GI50 calculated on two independent experiments.

[1] = Proton dissociation constants by UV-visible spectrophotometry; assay type: physicochemical; details: aqueous buffer solutions
Excerpt: The proton dissociation constants of Na2H4L^1·5.5 H2O (bis-TCH) were studied by registering the UV–visible spectra in aqueous solution between pH 3.98 and 10.00 (Figure 1A).
Between pH = 3.98 and 6.00, the solutions were colourless with absorption maxima at 237 and 320 nm. From pH = 6.49, the solution was pale green, and the colour became more intense until pH = 10.00; the colour change was accompanied by the appearance of bands at 253 and 393 nm, with a shoulder at 445 nm. […] This value is similar to that reported for the deprotonation of the phenolic moiety of sodium 5-sulfonate-salicylaldehyde thiosemicarbazones. The values of pKa1 and pKa2, associated with the proton dissociation of the sulfonic groups, are expected to have much lower values (below 3) and could not be determined from these experiments. Potentiometric titrations were performed in an attempt to determine the value of the pKa of the hydrazidic NH protons (pKa5 and pKa6) and, possibly, those of the protonated sulfonate groups. Effectively, potentiometric data allowed us to determine the pKa5 value, along with pKa3 and pKa4 (Table 2). The values of pKa3 and pKa4 obtained by potentiometry are consistent with those obtained by spectrophotometric titrations.
Similarly, the proton dissociation constants of bis-CH were studied spectrophotometrically in aqueous solution between pH = 3.98 and 10.00 (Figure 1B). […] The spectrophotometric data were processed by means of HypSpec2014 software, leading to pKa3 = 7.34(1) and pKa4 = 8.58(1), which were assigned to the deprotonation of the two phenolic OH groups (Table 2). As for bis-TCH, the single-site pKa value of the phenolic groups can be estimated as the average pKa (7.96). Additionally, to complete the analysis, we carried out potentiometric titrations of bis-CH starting from a very acidic pH. […] Importantly, no dissociation of the hydrazidic NH groups was observed, a behaviour consistent with that reported in the literature.
The UV–visible spectra were collected using a Thermo Scientific Evolution 260 Bio spectrophotometer equipped with a Peltier temperature controller. Aqueous buffer stock solutions (50 mM) were prepared as follows: acetate buffer solutions (pH = 3.98, 4.62, and 5.00) were prepared by mixing appropriate volumes of AcOH 50 mM and AcONa·3H2O 50 mM solutions. MES (pH = 5.51, 6.00, and 6.49), HEPES (pH = 7.00, 7.48, and 8.01) and CHES (pH = 8.62, 9.01, 9.51, and 10.00) buffer solutions were obtained by suspending appropriate amounts of solid MES/HEPES/CHES in water, adding aqueous NaOH 100 mM until the desired pH was reached. The pH was measured using a Crison Basic 20 pH meter connected with a Hamilton glass electrode. Calibration of the glass electrode was carried out daily. All solutions were prepared using double-distilled water. For all the solutions, the ionic strength was 0.1 M NaCl.
Samples used for the study of protonation equilibria of the ligands were prepared as follows. […] For each solution, the absorption spectrum was collected in the 220–600 nm range at 298.2 K. The spectral data collection was carried out immediately after the preparation of the samples and repeated after 3 and 10 min for all the samples at different pH values to check the stability of the ligand. […] The complex formation equilibria at pH 2.5 or 7.4 of bis-TCH and bis-CH with Cu(II) and Zn(II) ions were studied by direct spectrophotometric titrations of solutions of the ligands with the metal ions, and the samples were prepared as follows. Appropriate aliquots of the stock solutions of the ligands were diluted in a quartz cuvette of 1 cm path length using HEPES buffer (pH 7.4) or by adding HCl aqueous solution (pH 2.5) to obtain ca. 17 µM ligand solutions in a total volume of 2.6 mL. […]

[2] = UV-visible spectrophotometry, aqueous solution, T = 298.2 K, phenolic group, read-out: pKa3
[3] = UV-visible spectrophotometry, aqueous solution, T = 298.2 K, phenolic group, read-out: pKa4
[4] = average of spectrophotometric pKa3 and pKa4, read-out: single-site pKa value of the phenolic groups (average pKa)

SMILES	cytotoxic effect (in words) (Hs27 cells)	pKa [1, 2]	pKa [1, 3]	pKa [1, 4]
COc1cc(S(=O)(=O)[O-])cc(/C=N/NC(=O)N/N=C/c2cc(S(=O)(=O)[O-])cc(OC)c2O)c1O.[Na+].[Na+] [bis-CH, Bis-(sodium 3-methoxy-5-sulfonate-salicylaldehyde)-carbohydrazone]	did not produce a reduction in cell viability	7.34	8.58	7.96
COc1cc(S(=O)(=O)[O-])cc(/C=N/NC(=S)N/N=C/c2cc(S(=O)(=O)[O-])cc(OC)c2O)c1O.[Na+].[Na+] [bis-TCH, Bis-(sodium 3-methoxy-5-sulfonate-salicylaldehyde)-thiocarbohydrazone]		6.78	8.77	7.78
